Experimental data published in patent US9937186B2, “Sulfonamides derived from tricyclyl-2-aminocycloalkanols as anticancer agents” (ICAHN SCHOOL OF MEDICINE AT MOUNT SINAI, priority 2014, dated 2018).

Experiments:
H1650 lung cancer cells = assay: Cell viability assay (MTT), H1650 lung cancer cells; type: cell-based; conditions: Homo sapiens, NCI-H1650; H1650 cells
Procedure: Cell Viability Assays (IC50 Determination)
Cell viability assays were performed according to Denizot, F. and R. Lang, Journal of Immunological Methods, 1986. 89(22): p. 271-277. H1650 lung cancer cells were plated at 150,000 cells per well in a 12 well plate. Twenty-four hours after plating, cells were treated as described with increasing concentrations of drug and control. Forty-eight hours after drug treatment, cells were treated with 100 μL of 3-(4,5-Dimethylthiazol-2-yl)-2,5-diphenyltetrazolium bromide (MTT) and incubated for 2 hours at 37 C. The MTT solution was subsequently replaced with 300 μL of n-propyl alcohol and re-aliquoted to a 96 well plate. Spectrophotometric analysis of each solution was performed using a 96 well plate reader at 600 nm in triplicate.

H1650 cells = assay: Colony formation (clonogenic) assay, H1650 cells; type: cell-based; conditions: Homo sapiens, NCI-H1650, 192 h; H1650, harvested 8 days after initial treatment
Procedure: (§1) Protocol for clonogenic assay follows Sangodkar et al., J Clin Invest 2012; 122:2637-51.
(§2) Cell culture and staining: For both A549luc and H1650 cells, 500 cells are seeded into each well of a 6-well plate and allowed to attach for 24 hours before drug treatment. The following day, cells are treated with either the appropriate dose of drug or an equivalent volume of DMSO (two replicates were treated for each condition). For each condition, depleted media was replaced with fresh media containing the equivalent drug dose four days after initial treatment. Cells are harvested either 7 (A549 luc) or 8 (H1650) days after initial treatment. Briefly, medium is aspirated from each well and the cells are washed twice with ice-cold PBS, then plates are allowed to dry at room temperature for 4 hours. Cells are fixed for one hour in a fixing solution consisting of 10% methanol and 10% glacial acetic acid in distilled water, then stained overnight in 1% (w/v) crystal violet dissolved in methanol. The next day, staining solution is aspirated from the wells and plates are washed gently with distilled water to remove excess stain before colony counting. Colonies are imaged on a ChemiDoc XRS+ (Bio-Rad) and images are exported as 8-bit TIFF files. Colonies are counted using the Colony Counter plugin in ImageJ, with colony size defined as between 4 and 400 square pixels, and minimum circularity set at 0.6. Duplicate wells are averaged to obtain a single value for each condition. Results (number of colonies) for A549 luc cells and results (number of colonies) for H1650 cells may be analyzed separately.

A549luc cells = assay: Colony formation (clonogenic) assay, A549luc cells; type: cell-based; conditions: Homo sapiens, 168 h; A549 luc, harvested 7 days after initial treatment
Procedure: as §1, §2

[1] = tested on: lung cancer cell line H441; assay: In vivo cancer model: subcutaneous xenograft of lung cancer cell line H441, tumor volume; set-up: species or system mice; key to Mean Tumor Volume(T) / Median Tumor Volume(T): tumor volume in mm³; conditions: oral gavage, 30 days; for Mean Tumor Volume(T) / Median Tumor Volume(T): in mm³ (unit assumed)
Procedure: (§3) To assess the in vivo effects of the compounds, subcutaneous xenograft of lung cancer cell line H441 was generated. Cells (5×10^6) were injected into the right flank of 6- to 8-week-old male BALB/c nu/nu mice (Charles River, Wilmington, Mass.). Tumor volume was assessed twice a week by caliper measurement. Mice were randomized to treatment groups based on initial tumor volume average of 100 mm^3 per group. Mice were dosed by oral gavage with 15 mg/kg Example 1a QD, 15 mg/kg Example 1a BID, 50 mg/kg Example 1a QD, or 50 mg/kg Example 3a QD. Mouse tumors were measured twice a week for the duration of the study. Mouse body weights were recorded weekly and percentage of mice body weights during treatment was calculated as: weight at each time point/initial weight×100. […] Mice underwent treatment for 30 days and were sacrificed 2 hours after the last dose. Tumors were then excised and cut for both formalin-fixation and snap frozen in liquid nitrogen. […] No statistically significant toxicity was observed as judged from animal body weights of compound treated groups versus vehicle control group as shown in Table B below.

[2] = In vivo cancer model: body weights and signs of toxicity; set-up: species or system mice; conditions: for % T/C (Mean body weight) / % T/C (Median body weight) / Mean body weight / Median body weight: oral gavage; for signs of toxicity (mucous diarrhea, abdominal stiffness and weight loss): oral gavage 15 or 50 mg/kg, 30 days, BALB/c nu/nu mice
Procedure: as §3

[3] = 50 mg/kg QD, H441 xenograft mice

Compound: O=S(=O)(N[C@@H]1CCC[C@H](N2c3ccccc3Oc3ccccc32)[C@H]1O)c1ccc(OC(F)(F)F)cc1 (single isomer, unassigned) [Example 1a]
- GI50 (H1650 lung cancer cells): 5 µM
- GI50 (H1650 cells): 5 µM
- GI50 (A549luc cells): 7.5 µM
- % T/C (Mean Tumor Volume) ([1]; 15 mg/kg BID): 26.08%
- % T/C (Median Tumor Volume) ([1]; 15 mg/kg BID): 27.37%
- Mean Tumor Volume(T) ([1]; 15 mg/kg BID): 315.40
- Median Tumor Volume(T) ([1]; 15 mg/kg BID): 274.43
- % T/C (Mean Tumor Volume) ([1]; 15 mg/kg QD): 61.43%
- % T/C (Median Tumor Volume) ([1]; 15 mg/kg QD): 60.69%
- Mean Tumor Volume(T) ([1]; 15 mg/kg QD): 742.80
- Median Tumor Volume(T) ([1]; 15 mg/kg QD): 608.58
- % T/C (Mean Tumor Volume) ([1]; 50 mg/kg QD): 36.50%
- % T/C (Median Tumor Volume) ([1]; 50 mg/kg QD): 33.78%
- Mean Tumor Volume(T) ([1]; 50 mg/kg QD, BALB/c nu/nu mice): 441.37
- Median Tumor Volume(T) ([1]; 50 mg/kg QD): 338.69
- % T/C (Mean body weight) ([2]; 15 mg/kg BID): 95.27%
- % T/C (Median body weight) ([2]; 15 mg/kg BID): 99.58%
- Mean body weight ([2]; 15 mg/kg BID): 33.20 g
- Median body weight ([2]; 15 mg/kg BID): 35.45 g
- % T/C (Mean body weight) ([2]; 15 mg/kg QD): 95.27%
- % T/C (Median body weight) ([2]; 15 mg/kg QD): 93.68%
- Mean body weight ([2]; 15 mg/kg QD): 33.20 g
- Median body weight ([2]; 15 mg/kg QD): 33.35 g
- % T/C (Mean body weight) ([2]; 50 mg/kg QD): 100.59%
- % T/C (Median body weight) ([2]; 50 mg/kg QD): 99.72%
- Median body weight ([2]; 50 mg/kg QD): 35.50 g
- Mean body weight [2, 3]: 35.06 g
- signs of toxicity (mucous diarrhea, abdominal stiffness and weight loss) [2]: no adverse signs were observed

Compound: O=S(=O)(N[C@@H]1CCC[C@H](n2c3ccccc3c3ccccc32)[C@H]1O)c1ccc(OC(F)(F)F)cc1 (single isomer, unassigned) [Example 3a]
- GI50 (H1650 lung cancer cells): 10 µM
- GI50 (H1650 cells): 5 µM
- GI50 (A549luc cells): 7.5 µM
- % T/C (Mean Tumor Volume) ([1]; 50 mg/kg QD): 32.13%
- % T/C (Median Tumor Volume) ([1]; 50 mg/kg QD): 37.62%
- Mean Tumor Volume(T) ([1]; 50 mg/kg QD, BALB/c nu/nu mice): 388.47
- Median Tumor Volume(T) ([1]; 50 mg/kg QD): 377.21
- % T/C (Mean body weight) ([2]; 50 mg/kg QD): 93.96%
- % T/C (Median body weight) ([2]; 50 mg/kg QD): 92.70%
- Median body weight ([2]; 50 mg/kg QD): 33.00 g
- Mean body weight [2, 3]: 32.74 g
- signs of toxicity (mucous diarrhea, abdominal stiffness and weight loss) [2]: no adverse signs were observed
